# Assay results reported in patent publication US11672795B2, “Compositions and methods for treating pulmonary vascular disease” (UNIVERSITY OF PITTSBURGH-OF THE COMMONWEALTH SYSTEM OF …, priority 2016, dated 2023).
# How the values were obtained:
# PAAFs = assay: Metabolic activation of PAAFs cultivated on stiff matrix; type: cell-based
# Text: A-C) Pharmacological inhibition of GLS1 by either BPTES, C968 or CB839 blunted metabolic activation of PAAFs cultivated on stiff matrix as reflected by decreased glutaminolysis (A), glycolysis (B) and aspartate production (C). D-E) Pharmacological inhibition of GLS1 by either BPTES, C968 or CB839 decreased PAAFs dependent ECM remodelling upon stimulation by pro-inflammatory cytokines (EDN1, IL6 or TGF-b). […] G-H) Fibrilar collagen visualization (G) and quantification (H) by picrosirius red staining confirmed a decreased of ECM remodelling by activated PAAF (TGF-b) in presence of GLS1 inhibitors. I-M) PAAFs were cultivated upon indicated treatments. Cells were removed and pulmonary arterial endothelial cells (PAECs) were cultivated on the matrix synthesized by the PAAF. […] Data are expressed as mean±SEM (*P<0.05, § P<0.01, #P<0.001) of at least 3 independent experiments performed in triplicate. Paired samples were compared by 2-tailed Student's t test, while 1-way ANOVA and post-hoc Tukey's tests were used for group comparisons.
# [1] = test system: monocrotaline-exposed rats; assay: Right heart catheterization and right ventricular weight (RVSP, Fulton index) in monocrotaline-exposed rats; type: in vivo, rat; conditions: for right ventricular remodeling (Fulton index, RV/LV+S) / right ventricular systolic pressure (RVSP): daily i.p. 10 mg/kg, C968 from day 2, CB839 from day 7; for hemodynamic and histologic indices of PH: BAPN or verteporfin alone; for PAH severity as quantified by RVSP: daily BAPN or daily i.p. verteporfin 25 mg/kg
# Protocol: Monocrotaline-treated rats: As we previously described (7, 8), male Sprague-Dawley rats (10-14 week old) were injected with 60 mg/kg monocrotaline at time 0; at 0-4 weeks post-exposure, right heart catheterization was performed followed by harvest of lung tissue for RNA extraction or paraffin embedding, as described below (section: Tissue harvest).
# After physiological measurements by direct right ventricular puncture, the pulmonary vessels were gently flushed with 1 cc of saline to remove the majority of blood cells, prior to harvesting cardiopulmonary tissue. The heart was removed, followed by dissection and weighing of the right ventricle (RV) and of the left ventricle+septum (LV+S). Organs were then harvested for histological preparation or flash frozen in liquid N2 for subsequent homogenization and extraction of RNA and/or protein. To further process lung tissue specifically, prior to excision, lungs were flushed with PBS at constant low pressure (approximately 10 mmHg) via right ventricular cannulation, followed by tracheal inflation of the left lung with 10% neutral-buffered formalin (Sigma-Aldrich) at a pressure of approximately 20 cm H2O. After excision and 16 hours of fixation in 10% neutral-buffered formalin at 25° C., lung tissues were paraffin embedded via an ethanol-xylene dehydration series, before being sliced into 5 μm sections (Hypercenter XP System and Embedding Center, Shandon).
# To induce PH, male Sprague-Dawley rats (10-14 week old) were injected intraperitoneally with 60 mg/kg monocrotaline (Sigma-Aldrich). After two days, rats underwent intraperitoneal injection daily with 25 mg/kg of verteporfin (Active Biochemicals Company, Ltd) solubilized in 5% dimethyl sulfoxide (DMSO, Sigma-Aldrich). Two days after the last injection on day 21 post-monocrotaline injection, right heart catheterization was performed followed by harvest of lung tissue and CD31+ cells for RNA or protein extraction, paraffin embedding, or cryopreservation with OCT (Sigma-Aldrich), as we described (2).
# (§1) To induce PH, male Sprague-Dawley rats (10-14 week old) were injected intraperitoneally with 60 mg/kg monocrotaline (Sigma-Aldrich). After two days, serial intraperitoneal injections were given daily of C968 (10 mg/kg, Sigma-Aldrich), and after seven days post-monocrotaline injection, serial intraperitoneal injections were given daily of CB839 (10 mg/kg, Selleck Chemicals). Two days after the last injection on day 21 post-monocrotaline injection, right heart catheterization was performed followed by harvest of lung tissue and CD31+ cells for RNA or protein extraction, paraffin embedding, or cryopreservation with OCT (Sigma-Aldrich), as we described (2).
# as §1, with “Finally, to investigate whether glutaminolysis itself is essential for promoting pulmonary vascular proliferation in PH, two separate pharmacologic inhibitors of GLS1 (C968 and CB-839) were administered in monocrotaline-exposed rats using either a disease prevention (FIG. 5A) or disease reversal (FIG. 5B) dosing protocol. To” for “To”, “C968 or CB-839” for “C968”, “C968 or CB-839” for “CB839”, “as” for “as we”, “previously (Bertero T, et al. Cell Reports. 2015; 13(5):1016-32).” for “(2).”
# GLS1 = GLS1 expression by RT-qPCR in monocrotaline-exposed rats; type: in vivo, rat; conditions: for GLS expression: CD31+ cells of monocrotaline-exposed rats, daily BAPN or daily i.p. verteporfin 25 mg/kg; for GLS1 expression in lungs: monocrotaline-exposed rats, daily BAPN or daily i.p. verteporfin, vs vehicle, RT-qPCR
# Protocol: Messenger RNAs were reverse transcribed using the Multiscript RT kit (Life Technologies) to generate cDNA. cDNA was amplified via fluorescently labeled Taqman primer sets using an Applied Biosystems 7900HT Fast Real Time PCR device. To specifically determine the relative expression of the two GLS1 isoforms KGA and GAC, TaqMan gene expression assays Hs01014019_m1 and Hs01022166_m1 were used respectively. Fold-change of RNA species was calculated using the formula (2^−ΔΔCt), normalized to RPLP0 expression.
# As previously reported (8, 11), lobes of lung tissue from a rat were diced with scissors, to which 200 μL of collagenase D solution (Sigma) was added for a final concentration of 2 mg/ml collagenase D in 4.8 mL HEPES buffer (pH=7.4). After incubation for 30 min at 37° C. with automated rotation, 20 μL of DNase I (Sigma, final concentration of 80 U/mL DNase I) was added and incubated on ice for 30 min. The solution was filtered twice by a 70 μm cell strainer (BD Biosciences) to yield a single cell suspension. After two rounds of PBS wash, cell pelleting, and resuspension, the ACK lysing buffer (Gibco) was used to remove erythrocytes. Remained cells were incubated 30 min at 4° C. with a mouse anti-rat-CD31 antibody (BD Pharmigen 555025). Cells were PBS washed twice and incubated 15 min with anti-mouse IgG1 MicroBeads (Miltenyi Biotec) according to the manufacturer protocol. Single CD31-positive cells were then collected using an autoMACS Pro Separator, per the manufacturer's instructions (Miltenyi Biotec). The purity (>95%) of CD31 positive cells was confirmed by flow cytometric analysis by a FACScan flow cytometer (BD Biosciences) after cells labeling with the FITC-conjugated anti-CD31 (ab33858, Abcam).
Compound,aspartate production (PAAFs),glutaminolysis (PAAFs),glycolysis (PAAFs),metabolic activation of PAAFs (PAAFs),"right ventricular remodeling (Fulton index, RV/LV+S) [1]",right ventricular systolic pressure (RVSP) [1],"PAH severity, as quantified by vascular remodeling, arteriolar muscularization, RVSP and right ventricular hypertrophy ([1]; prevention experiment (C968) or reversal study)",hemodynamic and histologic indices of PH [1],PAH severity as quantified by RVSP [1],GLS expression (GLS1),GLS1 expression in lungs (GLS1),PAH severity as quantified by RVSP ([1]; listed as verteporfin),right ventricular remodelling (Fulton index) ([1]; daily i.p. verteporfin 25 mg/kg),GLS expression (GLS1; listed as verteporfin)
O=C(Cc1cccc(OC(F)(F)F)c1)Nc1ccc(CCCCc2nnc(NC(=O)Cc3ccccn3)s2)nn1 [CB839],decreased,decreased,decreased,blunted,significantly decreased,significantly decreased,,,,,,,,
"CN(C)c1ccc(C2Nc3ccc4ccccc4c3C3=C2C(=O)CC(C)(C)C3)cc1Br (stereo not drawn) [C968, 5-(3-Bromo-4-(dimethylamino)phenyl)-2,2-dimethyl-2,3,5,6-tetrahydrobenzo[a]phenanthridin-4(1H)-one]",decreased,decreased,decreased,blunted,significantly decreased,significantly decreased,ameliorated,,,,,,,
"N#CCCN [BAPN, β-aminoproprionitrile]",,,,,,,,improvement,in a lower extent BAPN ameliorated,decrease,decreased,,,
"C=Cc1c(C)c2cc3nc(cc4[nH]c(cc5nc(cc1[nH]2)C(C)=C5CCC(=O)O)c(CCC(=O)OC)c4C)[C@@]1(C)C3=CC=C(C(=O)OC)[C@H]1C(=O)OC [Verteporfin, 3-[(23S,24R)-14-ethenyl-5-(3-methoxy-3-oxopropyl)-22,23-bis(methoxycarbonyl)-4,10,15,24-tetramethyl-25,26,27,28-tetraazahexacyclo[16.6.1.1^3,6.1^8,11.1^13,16.0^19,24]octacosa-1,3,5,7,9,11(27),12,14,16,18(25),19,21-dodecaen-9-yl]propanoic acid]",,,,,,,,robust improvement,ameliorated,decrease,decreased,reductions,reductions,improved
